Data published in patent publication US20240417773A1 (priority 2022, published 2024).
Where two headings read alike, the source gives them in different places.

Experiments:
[1] = tested on: spores of the Bacillus atrophaeus; details: 50° C., 1.74 mg/L; for Observation result: excitation 365 nm
Procedure: A bacterial carrier on each indicator includes about 106 spores of the Bacillus atrophaeus. The six indicators are divided into three groups, each of which has two indicators. […] A treatment for 0 sec at 50° C. means that no treatment is performed, and is a control group; a treatment for 20 sec at 50° C. simulates a condition of incomplete sterilization; and treatment for 60 sec at 50° C. simulates a condition of successful sterilization where all the spores are supposed to be skilled theoretically. An exposure position of the indicator is located at a cold spot of a sterilization device. A sample subjected to the sterilization treatment is transferred onto a bechtop. Bacteria strips included in the biological indicators in the three groups after the sterilization treatment are taken out by means of sterilized tweezers, put in a sterile centrifuge tube, added with an appropriate quantity of sterile recovered liquid (0.1% polysorbate 80, and 0.03 M phosphate buffer liquid with pH being 7.2), fully oscillated and crushed. Afterwards, the centrifuge tube is put in an ice-bath for cooling.
Then, a sample in the centrifuge tube is subjected to centrifugation (a centrifugal force being 2000×g, a temperature being 4° C. and a centrifugation duration being 20 min), an obtained supernatant passes through a 10 μm millipore filter (a spore diameter is 1 μm to 2 μm, so in order to make the spores pass through the filter and the bacteria strip slags are blocked, a filter of 2 μm or above is needed), so as to obtain filtrate.
An appropriate amount of sterile recovered liquid is added into filtered slags (a main component is a crushed bacteria strip fiber) obtained after the above centrifugal filtration, after oscillating and shaking well, the above centrifugal filtration process is repeated, filtrate including thermal-damaged spores is further recovered, repetition is performed for 2 to 3 times like this, and the filtrate obtained by each centrifugal filtration is gathered as the spore suspension.
(§1) One drop of the liquid medium (30 g/L agar and 15 g/L tryptic soy broth) subjected to high-temperature sterilization is dropwise added onto an object slide, after this drop of the liquid medium is solidified, one drop of the 4-MUG with a concentration being 210 mg/L is dropwise added onto the solid medium, and a moment later, the 4-MUG fully infiltrates into the solid medium.
(§2) One drop of the spore suspension (including the thermal-damaged spores) is dropwise added onto the solid medium.
The number and sizes of fluorescent spots are observed under the observation system. […]

[2] = tested on: spore strips produced by Xinhua Mesa®Strip; details: 50° C., 1.74 mg/L; for Observation result: excitation 365 nm
Procedure: This embodiment selects six spore strips produced by Xinhua Mesa®Strip, which are divided into three groups and each group has two strips. […] A treatment for 0 sec at 50° C. means that no treatment is performed, and is a control group; a treatment for 20 sec at 50° C. simulates a condition of incomplete sterilization; and treatment for 60 sec at 50° C. simulates a condition of successful sterilization where all the spores are supposed to be skilled theoretically. An exposure position of the indicator is located at a cold spot of a sterilization device. A sample subjected to the sterilization treatment is transferred onto a bechtop. Bacteria strips included in the biological indicators in the three groups after the sterilization treatment are taken out by means of sterilized tweezers, put in a sterile centrifuge tube, added with an appropriate amount of sterile recovered liquid (0.1% polysorbate 80, and 0.03 M phosphate buffer liquid with pH being 7.2), fully oscillated and crushed. Afterwards, the centrifuge tube is put in an ice-bath for cooling.
as §1, §2
The number and sizes of fluorescent spots are observed under the observation system. The observation system is composed of four parts: 1) a stereoscopic microscope (a brand model may be: Nikon SMZ800); 2) a time gating camera (a brand model may be: Photonics Research Systems, Salford, UK) mounted on the above stereoscopic microscope; 3) a xenon flash lamp (a brand model may be: PerkinElmer, Waltham, MA) forming a 45° angle relative to a sample; and 4) a temperature-controlled microscope object slide stand (a brand model may be: Thermal).
Parameters set for the observation system are as follows: the xenon flash lamp has an excitation wavelength of 365 nm and an excitation slit width of 10 nm. Observed by the stereoscopic microscope, an emission wavelength is 544 nm, and an emission slit is 10 nm.

Question: With `OO` [hydrogen peroxide] as the compound, how does the Conclusion ([1]; 20 sec) read?
Answer: Incomplete

Question: And the Observation result ([1]; 20 sec)?
Answer: A certain quantity of scattered

Question: And the Conclusion ([1]; 60 sec)?
Answer: Complete

Question: What about the Observation result ([1]; 60 sec) of the same compound?
Answer: No fluorescent spot

Question: And the Conclusion ([2]; 20 sec)?
Answer: Incomplete

Question: What about the Observation result ([2]; 20 sec) of the same compound?
Answer: A certain quantity of scattered

Question: What about the Conclusion ([2]; 60 sec) of the same compound?
Answer: Complete

Question: And the Observation result ([2]; 60 sec)?
Answer: No fluorescent spot
